# Test results reported in US20190314379A1, “METHODS OF USING CANNABINOID CB2 RECEPTOR AGONIST COMPOSITIONS TO SUPPRESS AND PREVENT OPIOID TOLERANCE AND WITHDRAWAL IN A SUBJECT” (Indiana University Research and Technology Corporation, priority 2018, published 2019).
# “Also recorded” adds a separate entry of the source.
# How the values were obtained:
# mouse CB2 receptors [1] = biological target: T1, mouse CB2 receptors (Mus musculus, UniProt P47936); assay: On-cell western for receptor internalization, HEK mCB2; format: cell-based
# T1 construct: expressed in transfected cells
# T1 sequence (P47936 whole entry): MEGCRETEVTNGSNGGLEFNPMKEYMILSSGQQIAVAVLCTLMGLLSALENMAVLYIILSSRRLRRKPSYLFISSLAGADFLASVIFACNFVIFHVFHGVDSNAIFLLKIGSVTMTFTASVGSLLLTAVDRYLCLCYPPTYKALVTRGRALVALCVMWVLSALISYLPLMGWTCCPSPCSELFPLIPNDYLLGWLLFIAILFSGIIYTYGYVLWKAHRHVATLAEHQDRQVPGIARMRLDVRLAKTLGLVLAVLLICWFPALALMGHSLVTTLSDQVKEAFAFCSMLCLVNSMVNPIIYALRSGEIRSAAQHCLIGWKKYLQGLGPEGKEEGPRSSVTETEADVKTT
# human CB2 [2] = biological target: T2, human CB2 (Homo sapiens, UniProt P34972); assay: Forskolin-stimulated cAMP accumulation (cyclase), HEK hCB2; format: cell-based; parameters: expressed in transfected cells; time of inhibition of forskolin-stimulated cAMP accumulation: dose or concentration left out as unconfirmed
# T2 sequence (P34972 whole entry): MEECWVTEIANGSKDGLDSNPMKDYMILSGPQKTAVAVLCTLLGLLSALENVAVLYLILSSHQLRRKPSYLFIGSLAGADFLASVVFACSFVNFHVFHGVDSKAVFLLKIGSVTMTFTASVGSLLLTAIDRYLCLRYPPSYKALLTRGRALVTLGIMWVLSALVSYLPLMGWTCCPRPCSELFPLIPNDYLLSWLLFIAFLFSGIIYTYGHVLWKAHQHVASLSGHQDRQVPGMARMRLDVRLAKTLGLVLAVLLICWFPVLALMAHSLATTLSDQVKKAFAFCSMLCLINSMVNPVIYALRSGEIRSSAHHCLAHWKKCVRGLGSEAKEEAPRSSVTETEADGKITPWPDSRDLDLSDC
# human CB2 [3] = biological target: T2, human CB2; assay: Phosphorylated ERK1/2 detection, HEK hCB2; format: cell-based; parameters: expressed in transfected cells
# mouse CB2 receptors [4] = biological target: T1, mouse CB2 receptors; assay: Forskolin-stimulated cAMP accumulation (cyclase), HEK mCB2; format: cell-based
# mouse CB2 receptors [5] = biological target: T1, mouse CB2 receptors; assay: Phosphorylated ERK1/2 detection, HEK mCB2; format: cell-based
# mouse CB2 receptors [6] = biological target: T1, mouse CB2 receptors; assay: Arrestin recruitment (PathHunter CHO K1CNR2, enzyme complementation); format: cell-based
# human CB2 [7] = biological target: T2, human CB2; assay: On-cell western for receptor internalization, HEK hCB2; format: cell-based; parameters: expressed in transfected cells; conditions: read-out: Internalization Emax
# [8] = tested on: morphine analgesia and antinociceptive tolerance; conditions: rats, with morphine; cited from earlier work
# mouse CB2 receptors [9] = biological target: T1, mouse CB2 receptors; assay: Myo-inositol phosphate-1 (IP1) accumulation, HEK mCB2; format: cell-based; conditions: via mouse CB2
# [10] = tested on: paclitaxel-induced cold allodynia; assay: Paclitaxel-induced cold allodynia (acetone); format: in vivo, mouse; conditions: 10 mg/kg per day i.p.×12 days
# Protocol: (§1) In all studies, the experimenter was blinded to the treatment condition, and mice were randomly assigned to experimental conditions. Paclitaxel (4 mg/kg i.p.) was administered four times on alternate days (cumulative dose, 16 mg/kg i.p.) to induce neuropathic pain as described previously by our group (Deng et al., 2015). Control mice received an equal volume of cremophor-vehicle. Development of paclitaxel-induced allodynia was assessed on day 0, 4, 7, 11, and 14.
# (§2) Effects of pharmacologic manipulations were assessed at 30 minutes after drug administration during the maintenance phase of paclitaxel-induced neuropathy (i.e., beginning day 18-20 after initial paclitaxel injection).
# (§3) In experiments 2 and 3, pharmacologic manipulations were performed once daily for 12 consecutive days in each of the two phases of chronic treatment. Four days separated phase 1 and phase 2 chronic dosing in all studies comprising two phases of chronic dosing. Experiments 2 and 3 were performed concurrently using overlapping cohorts that were tested with a single vehicle (phase 1), vehicle (phase 2) group.
# (§4) We then assessed the antiallodynic efficacy of chronic systemic administration of vehicle or morphine (10 mg/kg per day i.p.×12 days) administered during phase 2 in the same animals. Responsiveness to mechanical and cold stimulation was evaluated on treatment days 1, 4, 8, and 12 during phase 1 and on treatment days 16, 19, 23, and 27 during phase 2 (i.e., phase 2 started on day 16).
# (§5) In experiment 4, we evaluated the impact of coadministration of morphine (10 mg/kg i.p.×12 days) with a submaximal dose of LY 2828360 (0.1 mg/kg per day i.p.×12 days) in WT and CB2 KO mice.
# Response time (seconds) spent attending to (i.e., elevating, licking, biting, or shaking) the paw stimulated with acetone (Sigma-Aldrich) was measured in triplicate for each paw to assess cold allodynia as previously published. An acetone bubble (approximately 5 to 6 p.1) formed at the end of a blunt 1-ml syringe hub was gently applied to the plantar surface of the hind paw. Care was taken not to apply mechanical stimulation to the hind paw with the syringe itself. The total time the animal spent attending to the acetone-stimulated paw (i.e., elevation, shaking, or licking) was recorded over 1 minute after acetone application. Acetone was applied three times to each paw with a 3-minute interval between applications. Values for each animal were calculated as the mean of six determinations of acetone responsiveness derived from each mouse.
# [11] = tested on: naloxone-precipitated opioid withdrawal; assay: Naloxone-precipitated opioid withdrawal in paclitaxel-treated mice; format: in vivo, mouse
# Protocol: Alter the last injection of morphine (on day 28 for two-phase treatments, on day 13 for coadministration treatment), we challenged WT or CB2KO mice from experiments 2, 3, and 4 with vehicle, followed 30 minutes later by naloxone (5 mg/kg i.p.) to precipitate opioid receptor-mediated withdrawal. Mice were video-recorded for subsequent scoring of withdrawal-like behaviors for a 30-minute interval after challenge with vehicle or naloxone.
# Mice were video-taped, and the number of jumps was scored in 5-minute intervals for a total observation period of 30 minutes after challenge with either saline or naloxone (5 mg/kg i.p.).
# [12] = tested on: paclitaxel-induced mechanical allodynia; assay: Paclitaxel-induced mechanical allodynia (electronic von Frey); format: in vivo, mouse; conditions: 10 mg/kg per day i.p.×12 days
# Protocol: as §1, §2, §3, §4, §5
# Paw withdrawal thresholds (grams) to mechanical stimulation were measured in duplicate for each paw using an electronic von Frey anesthesiometer supplied with a 90-g probe (model Alemo 2390-5; IITC, Woodland Hills, Calif.) as described previously. Mice were placed on an elevated metal mesh table and allowed to habituate under individual, inverted plastic cages to the testing platform for at least 20 minutes until exploratory behavior had ceased. Alter the habituation period, a force was applied to the midplantar region of the hind paw with a semiflexible tip connected to the anesthesiometer. Mechanical stimulation was terminated when the animal withdrew its paw, and the value of the applied force was recorded in grams. Mechanical paw withdrawal thresholds were obtained in duplicate for each paw and are reported as the mean of duplicate determinations from each animal, averaged across animals, for each group.
# [13] = WT mice, days 16-27, 10 mg/kg/day
compound,measurement,setting,value
"CCCCCCC(C)(C)c1ccc([C@@H]2C[C@H](O)CC[C@H]2CCCO)c(O)c1 (relative stereo) [CP55940, reference compound]",EC50,mouse CB2 receptors [1],7.4 nM
same,receptor internalization,mouse CB2 receptors [1]; HEK mCB2,concentration dependently internalized the mCB2
same,Emax,mouse CB2 receptors [1]; read-out: Internalization Emax,49.1%
same,"cAMP levels, compound alone (no forskolin)",human CB2 [2]; HEK hCB2,alone did not change the cAMP levels
same,duration of decrease in cAMP,human CB2 [2]; HEK hCB2,up to 10 minutes
same,"inhibition of forskolin-induced cAMP levels, time course","human CB2 [2]; HEK hCB2, 1 μM final concentration",produced early inhibition of forskolin-induced cAMP levels at 5 minutes
same,inhibition of forskolin-stimulated cAMP after PTX pretreatment,"human CB2 [2]; HEK hCB2, 1 μM final concentration, PTX",blocked the inhibition of forskolin-stimulated cAMP
same,inhibition of forskolin-stimulated cAMP accumulation,"human CB2 [2]; hCB2, 5 minutes of treatment",potent and efficacious
same,time of inhibition of forskolin-stimulated cAMP accumulation,"human CB2 [2]; hCB2, time course",5 min
same,inhibition of cAMP accumulation after PTX pretreatment,"human CB2 [2]; hCB2, time course, PTX",abolished this effect
same,Emax,human CB2 [2]; read-out: Cyclase Emax,59.6%
same,ERK1/2 phosphorylation time course,"human CB2 [3]; hCB2, 1 pM","efficaciously increased ERK1/2 phosphorylation after 5 minutes, 10 minutes, and 30 minutes"
same,ERK1/2 phosphorylation after PTX treatment,"human CB2 [3]; hCB2, 1 pM, PTX",retained
same,stimulated phosphorylation of ERK1/2 in presence of SR144528,"human CB2 [3]; hCB2, SR144528 (1 pM)",completely blocked
same,Emax,"human CB2 [3]; read-out: pERK1/2 Emax, human CB2, 05 mins incubation",95.7%
same,Emax,"human CB2 [3]; read-out: pERK1/2 Emax, human CB2, 30 mins incubation",49.4%
same,EC50,mouse CB2 receptors [4],6.6 nM
same,forskolin-induced cAMP levels,"mouse CB2 receptors [4]; HEK mCB2, 1 μM final concentration, 5 minutes",attenuated forskolin-induced cAMP levels; also recorded: stronger inhibitory effect than AM1710
same,cAMP levels in the absence of forskolin,"mouse CB2 receptors [4]; HEK mCB2, compound alone",alone did not change cAMP levels
same,forskolin-stimulated cAMP after PTX treatment,"mouse CB2 receptors [4]; mCB2, 1 μM, PTX 300 ng/ml overnight",modestly increased cAMP accumulation at 5 minutes; also recorded: abolished the decrease in forskolin-stimulated cAMP
same,time of efficacious inhibition of forskolin-stimulated adenylyl cyclase,"mouse CB2 receptors [4]; mCB2, 1 μM, time course",~5 min
same,"inhibition of forskolin-stimulated cAMP accumulation, concentration response","mouse CB2 receptors [4]; mCB2, 5 minutes",potently and efficaciously inhibited cAMP accumulation
same,Emax,mouse CB2 receptors [4]; read-out: Cyclase Emax,52.8%
same,ERK1/2 phosphorylation time course,"mouse CB2 receptors [5]; mCB2, 1 μM","increased phosphorylated ERK1/2 at 5-, 10-, 30-, and 40-minute time points"
same,ERK1/2 phosphorylation after PTX treatment,"mouse CB2 receptors [5]; mCB2, 1 μM, PTX","abolished the CP55940-mediated phosphorylation of ERK1/2 at the 5-minute time point, but it was retained at the 40-minute time point"
same,"ERK1/2 phosphorylation, concentration response","mouse CB2 receptors [5]; mCB2, 5 minutes",concentration dependency increased ERK1/2 phosphorylation
same,"ERK1/2 phosphorylation, concentration response","mouse CB2 receptors [5]; mCB2, 20 minutes",decreased ERK1/2 phosphorylation
same,effect on ERK1/2 phosphorylation in presence of SR144528,"mouse CB2 receptors [5]; mCB2, 20 minutes, SR144528 1 μM",blocked
same,EC50,"mouse CB2 receptors [5]; pERK1/2 EC50, mouse CB2, 05 mins incubation",10.5 nM
same,EC50,"mouse CB2 receptors [5]; pERK1/2 EC50, mouse CB2, 20 mins incubation",1.5 nM
same,Emax,"mouse CB2 receptors [5]; read-out: pERK1/2 Emax, mouse CB2, 05 mins incubation",136%
same,Emax,"mouse CB2 receptors [5]; read-out: pERK1/2 Emax, mouse CB2, 20 mins incubation",20.3%
same,EC50,mouse CB2 receptors [6],2.3 nM
same,arrestin recruitment,"mouse CB2 receptors [6]; CHO cells expressing mCB2, 90-minute drug incubation",recruited arrestin in a concentration-dependent manner
same,Emax,mouse CB2 receptors [6]; read-out: Arrestin Emax,125%
same,Emax,human CB2 [7],33.9%
CCCCCOc1c(OC)ccc2cc(C(=O)NCc3ccc4c(c3)OCO4)c(=O)[nH]c12 [JTE907],morphine analgesia and morphine antinociceptive tolerance,[8],decreased morphine analgesia and attenuated morphine antinociceptive tolerance
"Cc1c(C(=O)c2cccc3ccccc23)c2cccc3c2n1[C@H](CN1CCOCC1)CO3 [WIN55212-2, reference compound]",IP1 accumulation,mouse CB2 receptors [9],increased IP1 accumulation
"CN1CC[C@]23c4c5ccc(O)c4O[C@H]2[C@@H](O)C=C[C@H]3[C@H]1C5 [morphine, reference compound]","cold allodynia, chronic phase 1 morphine",[10]; CB2KO mice,completely absent on day 8 and day 12
same,"cold allodynia, chronic phase 1 morphine","[10]; WT mice, days 4, 8, 12",tolerance developed to the antiallodynic effects of morphine
same,"cold allodynia, phase 2 morphine after phase 1 vehicle",[10]; [13],only suppressed paclitaxel-induced mechanical and cold allodynia on day 16; also recorded: no longer efficacious
same,"naloxone-precipitated jumping, Veh (1)-Mor (2) vs Veh (1)-Veh (2)",[11]; paclitaxel-treated CB2KO mice,precipitated jumping
same,"number of naloxone-precipitated jumps, vehicle (1)-morphine (2) vs vehicle (1)-vehicle (2)","[11]; paclitaxel-treated WT mice, morphine 10 mg/kg per day×12 days, naloxone 5 mg/kg i.p.",exhibited a greater number of jumps
same,"naloxone-precipitated withdrawal, Mor (1)-LY (2) vs Veh (1)-Veh (2)","[11]; paclitaxel-treated WT mice, morphine in phase 1",did not precipitate withdrawal
same,"mechanical allodynia, chronic phase 1 morphine",[12]; CB2KO mice,completely absent on day 8 and day 12
same,"mechanical allodynia, chronic phase 1 morphine","[12]; WT mice, days 4, 8, 12",tolerance developed to the antiallodynic effects of morphine
same,"mechanical allodynia, phase 2 morphine after phase 1 vehicle",[12]; [13],only suppressed paclitaxel-induced mechanical and cold allodynia on day 16; also recorded: no longer efficacious
